Converted amounts (≈) assume the structure as drawn.
What was measured:
[1] = tested on: human gastric cancer cells, 4-1ST; experiment: In vivo antitumor activity against human gastric cancer cells, 4-1ST, subcutaneously implanted into nude mice; conditions: for Body weight / T/C (%) / Tumor growth rate (Rt): 125 mg/kg i.v. days 10, 14, 18
Procedure: In vivo antitumor activity against human gastric cancer cells, 4-1ST, subcutaneously implanted into nude mice
Human gastric cancer cells, 4-1ST(ca. 8 mm^3), are subcutaneously implanted at the ventral site of nude mice (BALB/c-nu/nu, female, 5 weeks old). Ten days after the implantation when the tumor volume reaches 150 to 300 mm^3, the mice are divided into groups (6 mice/group), and the treatment with a test drug was started.
5-Ethynyl-1-β-D-ribofuranosylimidazole-4-carboxamide is dissolved in distilled water and intravenously administered to the mice at a dose of 125 mg/kg on days 10, 14 and 18 after the implantation of the tumor, the volume of the drug solution being 0.1 ml per 10 g of the body weight of the mouse.
Each mouse is weighed, and width (a mm) and length (b mm) of the tumor thereof are measured twice a week to determine the tumor volume (A mm^3) from the following equation: […]
Subsequently, the tumor growth rate (R) is determined as follows on the basis of the tumor volume (A10) on day 10 after the implantation of the tumor cells:
R: Tumor growth rate after a predetermined period from the tumor implantation
A: Tumor volume after a predetermined period from the tumor implantation
A10 : Tumor volume as determined 10 days after the tumor implantation
T/C (%) is further obtained from the following equation by comparison between the tumor growth rate in the test group (Rt) and that in the control group (Rc):
Test group: 125 mg/kg of the drug was intravenously administered on days
10, 14 and 18 after the tumor implantation.

PANC-1 = experiment: In vitro anti-proliferative activity against human tumor cell lines (PANC-1); format: cell-based; conditions: PANC-1, Pancreatic carcinoma, 72 hours
Procedure: (§1) In vitro anti-proliferative activity against human tumor cell lines
(§2) Test Compound: 5-ethynyl-1-β-D-ribofuranosylimidazole-4-carboxamide
(§3) A variety of human tumor cell lines are suspended in media specified according to the species of the cell lines to predetermined cell concentrations as shown in the following Table.
(§4) 1 ml of the resulting cell suspension is seeded into each well of a 24 multi-well plate and incubated in a 5% CO2 -incubator at 37° C. for 24 hours. The culture medium is then replaced by a medium containing no test compound or by an appropriate amount of a serially diluted test compound solution. […] The number of the cells in each well is counted with a Coulter counter (Model ZB, Coulter Electronics), and the growth inhibition percent (%) of the cells at each concentration of a test compound is determined by the following equation: [formula] Tx: Number of the cells in a well containing a test compound as counted upon completion of the incubation (cells/ml) […] Cx: Number of the cells in a well containing no test compound as counted upon completion of the incubation (cells/ml)
(§5) Co: Number of the cells in a well containing no test compound as counted at the initiation of the incubation (cells/ml) […]

KB = experiment: In vitro anti-proliferative activity against human tumor cell lines (KB); format: cell-based; conditions: Nasopharyngeal carcinoma, 72 hours
Procedure: as §1, §2, §3, §4, §5

KU-2 = experiment: In vitro anti-proliferative activity against human tumor cell lines (KU-2); format: cell-based; conditions: KU-2, Renal cell carcinoma, 72 hours
Procedure: as §1, §2, §3, §4, §5

PC-3 = experiment: In vitro anti-proliferative activity against human tumor cell lines (PC-3); format: cell-based; conditions: PC-3, Prostate adenocarcinoma, 72 hours
Procedure: as §1, §2, §3, §4, §5

mouse sarcoma 180 = experiment: In vitro anti-proliferative activity against mouse tumor cell lines, Test Method 2 (sarcoma 180); format: cell-based; conditions: Sarcoma 180, 48 hours, 37° C.
Procedure: (§6) In vitro anti-proliferative activity against mouse tumor cell lines
1. Mouse lymphoma cell line P388 or mouse sarcoma 180 is suspended in RPMI1640 medium supplemented with 10% fetal bovine serum and 2 μM 2-hydroxyethyl disulfide to a concentration of 10^5 cells/ml. Test compounds are serially diluted with the same medium.
2. 0.5 ml of the cell suspension thus obtained is admixed with 0.5 ml of the medium or the test compound solution, and the mixture is incubated in a 5% CO2 -incubator at 37° C. for 48 hours. The incubation is carried out in glass culture tubes.
3. At the end of incubation, the number of the cells in each tube is counted with a Coulter counter (Model ZB, Coulter Electronics), and the growth inhibition percent (%) is calculated from the same equation as in Test Method 1.
4. The IC50 value is obtained as in Test Method I.

WiDr = experiment: In vitro anti-proliferative activity against human tumor cell lines (WiDr); format: cell-based; conditions: Colon adenocarcinoma, 72 hours
Procedure: as §1, §2, §3, §4, §5

HeLa = experiment: In vitro anti-proliferative activity against human tumor cell lines (HeLa); format: cell-based; conditions: Cervical carcinoma, 72 hours
Procedure: as §1, §2, §3, §4, §5

[2] = tested on: L1210 mouse leukemia cells; experiment: In vitro anti-proliferative activity against mouse tumor cell lines, Test Method 1 (L1210); format: cell-based; conditions: L1210, 48 hours, 37° C.
Procedure: as §6
1. L1210 mouse leukemia cells are cultivated in RPMI1640 medium supplemented with 10% fetal bovine serum, and the resultant cells are diluted with the same medium in the logarithmic growth phase to a concentration of 1.6×10^5 cells/ml.
2. To test tubes each containing 0.9 ml of the above obtained diluted cell suspension is added 0.1 ml each of test solutions serially diluted with a culture medium or phosphate-buffered saline (PBS), and the mixture is incubated in a 2% CO2 -incubator at 37° C. for 48 hours.
3. After incubation, the number of the cells in each tube is counted with a Coulter counter (Model ZB, Coulter Electronics), and the growth inhibition percent (%) of the cells at each concentration of a test compound is calculated from the following equation: [formula] Tx: Number of the cells in a test tube containing a test compound as counted upon completion of the incubation (cells/ml)
Cx: Number of the cells in a test tube containing no test compound as counted upon completion of the incubation (cells/ml)
Co: Number of the cells in a test tube containing no test compound as counted at the initiation of the incubation (cells/ml)
4. The concentration of the test compound, which causes cell growth inhibition by 50%, is determined by the graph showing the relationship between the growth inhibition percent and the concentration of the test compound, and is defined as 50% inhibitory concentration (IC50).

U-2OS = experiment: In vitro anti-proliferative activity against human tumor cell lines (U-2OS); format: cell-based; conditions: U2OS, Osteogenic sarcoma, 72 hours
Procedure: as §1, §2, §3, §4, §5

[3] = day 22, * = P < 0.05 vs control
[4] = day 25, * = P < 0.05 vs control

C#Cc1c(C(N)=O)ncn1[C@@H]1O[C@H](CO)[C@@H](O)[C@H]1O [5-ethynyl-1-β-D-ribofuranosylimidazole-4-carboxamide]
antitumor activity ([1]; 125 mg/kg every 4 days 3 times in total, i.v.): remarkable antitumor activity
Body weight ([1]; day 10 after implantation): 20 g
T/C (%) ([1]; day 10 after implantation): 100%
Tumor growth rate (Rt) ([1]; day 10 after implantation): 1.0
Body weight ([1]; day 14): 21 g
T/C (%) ([1]; day 14): 67%
Tumor growth rate (Rt) ([1]; day 14): 3.0
Body weight ([1]; day 17): 21 g
T/C (%) ([1]; day 17): 67%
Tumor growth rate (Rt) ([1]; day 17): 5.1
Body weight ([1]; day 22): 22 g
T/C (%) [1, 3]: 60%
Tumor growth rate (Rt) [1, 3]: 8.0
Body weight ([1]; day 25): 23 g
T/C (%) [1, 4]: 63%
Tumor growth rate (Rt) [1, 4]: 12
Body weight ([1]; day 28): 23 g
T/C (%) ([1]; day 28): 67%
Tumor growth rate (Rt) ([1]; day 28): 16
Body weight ([1]; day 31): 24 g
T/C (%) ([1]; day 31): 71%
Tumor growth rate (Rt) ([1]; day 31): 20
Body weight ([1]; day 35): 23 g
T/C (%) ([1]; day 35): 77%
Tumor growth rate (Rt) ([1]; day 35): 30
IC50 (PANC-1): 0.9 µg/mL (≈ 3.37 µM)
IC50 (KB): 0.33 µg/mL (≈ 1.23 µM)
IC50 (KU-2): < 0.1 µg/mL
IC50 (PC-3): 0.8 µg/mL (≈ 2.99 µM)
IC50 (mouse sarcoma 180): 0.1 µg/mL (≈ 0.374 µM)
IC50 (WiDr): 0.46 µg/mL (≈ 1.72 µM)
IC50 (HeLa): 0.3 µg/mL (≈ 1.12 µM)
IC50 [2]: 0.18 µg/mL (≈ 0.674 µM)
IC50 (U-2OS): 0.62 µg/mL (≈ 2.32 µM)

From patent publication US5059590A, “Imidazole derivatives, process for production thereof, and use thereof” (Yamasa Shoyu Kabushiki Kaisha, priority 1988, dated 1991)
